Experimental data: ChEMBL document CHEMBL1142647, “Potent pyrimidinetrione-based inhibitors of MMP-13 with enhanced selectivity over MMP-14” (Bioorg Med Chem Lett, 2005)

Biological target: Collagenase 3 (Homo sapiens, UniProt P45452)
Assay: Inhibitory concentration against matrix metalloprotease 13

| Compound | IC50 [nM] |
| --- | --- |
| CC1(Oc2ccc(Cl)cc2)C(=O)NC(=O)NC1=O | 390 |
| CCCCC1(Oc2ccc(Oc3ccc(F)cc3)cc2)C(=O)NC(=O)NC1=O | 2 |
